According to publication PMC10384675, “Novel Thiazolidine-2,4-dione-trimethoxybenzene-thiazole Hybrids as Human Topoisomerases Inhibitors” (Pharmaceuticals, 2023):

Legend:
MCF-7 cells = experiment: TUNEL assay; assay type: cell-based, human; settings: at IC50 value, 24 h
From the text: Numerous data in the literature indicate that topoisomerase inhibitors are among the most efficient inducers of apoptosis. […] As reference molecule, we adopted ellipticine for this assay, also. […] In contrast, no fluorescence was visible in the DMSO-treated cells used as negative control (Figure 5, CTRL, panel B). These outcomes indicated the ability of the studied compound to induce DNA damage, as ellipticine did, triggering cancer cells death.
Cell apoptosis was detected by means of the TUNEL assay, following the manufacturer’s protocols (CF™488A TUNEL Assay Apoptosis Detection Kit, Biotium, Hayward, CA, USA), with few modifications, as already reported. DAPI staining (0.2 μg/mL, Sigma Aldrich, Milan, Italy) was used for cell nuclei. A fluorescence microscope (Leica DM 6000) was used for the observations at 20× magnification. LAS-X software allowed the acquisition and processing of all of the images, which were representative of three separate experiments.
Figure 5 TUNEL assay. MCF-7 breast cancer cells were exposed to compounds 7e and ellipticine (E) at their IC50 values, or to the vehicle (DMSO) for 24 h. Then, they were further processed, as reported in Section 4, and imaged under a fluorescence microscope (20× magnification). Panels (A), DAPI λex,em= 350 nm/460 nm; panels (B), CF^TM488A, λex,em = 490 nm/515 nm; panels (C) show the merge channel.

hTopo I = biological target: T1, hTopo I (Homo sapiens, UniProt P11387); experiment: hTopo I relaxation assay; assay type: biochemical; design: key to Topoisomerase Inhibition hTopo I: (+) inhibition; (−) no inhibition; (+/−) partial inhibition; settings: 10 µM
T1 construct: purchased TopoGEN, Port Orange, FL, USA
T1 sequence (P11387 1-765): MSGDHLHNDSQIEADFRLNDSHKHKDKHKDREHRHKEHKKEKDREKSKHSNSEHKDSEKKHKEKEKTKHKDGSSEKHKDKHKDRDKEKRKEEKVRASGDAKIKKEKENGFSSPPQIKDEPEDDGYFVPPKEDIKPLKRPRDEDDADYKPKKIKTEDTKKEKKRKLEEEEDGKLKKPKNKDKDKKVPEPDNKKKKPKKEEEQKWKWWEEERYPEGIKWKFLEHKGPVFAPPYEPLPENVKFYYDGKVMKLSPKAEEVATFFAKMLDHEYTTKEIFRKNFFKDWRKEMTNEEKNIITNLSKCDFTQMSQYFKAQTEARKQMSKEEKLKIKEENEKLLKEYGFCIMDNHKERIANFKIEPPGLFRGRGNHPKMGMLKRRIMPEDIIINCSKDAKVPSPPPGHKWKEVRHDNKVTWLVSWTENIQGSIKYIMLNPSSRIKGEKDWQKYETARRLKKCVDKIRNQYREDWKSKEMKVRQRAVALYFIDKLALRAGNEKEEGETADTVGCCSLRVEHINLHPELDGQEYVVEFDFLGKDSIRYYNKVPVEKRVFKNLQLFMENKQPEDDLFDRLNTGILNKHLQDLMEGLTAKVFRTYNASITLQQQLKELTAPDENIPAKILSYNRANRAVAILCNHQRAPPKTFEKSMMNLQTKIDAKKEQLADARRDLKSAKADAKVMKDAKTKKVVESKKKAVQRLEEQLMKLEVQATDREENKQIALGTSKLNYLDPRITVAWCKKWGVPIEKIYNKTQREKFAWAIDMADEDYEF
From the text: Thiazoles and their derivatives are extensively recognized as chemical nuclei of great interest for producing molecules with multiple biological properties. In particular, several compounds bearing these heterocycles were studied for their capability to interfere with DNA topoisomerases (Topos), ubiquitous enzymes essential in several key cellular processes. In recent years, these enzymes have become popular targets in cancer therapy; indeed, the topoisomerase inhibitors can induce damage to genome integrity. Consequently, the inhibition of topoisomerases leads to cell death by apoptosis and, thus, is fatal. Thus, we carried out two specific tests in vitro for both of the Topos, namely the hTopo I relaxation and the hTopo II decatenation assays. For the hTopo I relaxation assay, we exposed the enzyme to the most interesting compounds, 7b–7e, at the final concentration of 10 µM for 1 h at 37 °C, using as substrate the supercoiled pHOT1 (see Section 4 Materials and Methods for more details). […] Contrarily, in the CTRL lane, where the hTopo I was exposed to only vehicle (DMSO), several bands due to pHOT1 DNA cleavage were present (Figure 3, lane C). […] In Figure 3, panel B, the hTopo I inhibition results using ellipticine, as reference molecule are shown. […] An electrophoretic mobility shift of the pHOT1 DNA was also noticeable, due to the intercalating properties of ellipticine.
hTopo I relaxation assays were performed by incubating the substrate (supercoiled pHOT1) with the recombinant hTopo I (TopoGEN, Port Orange, FL, USA) and compounds, as indicated in the supplier protocol (TopoGEN, Port Orange, FL, USA), with some revisions. hTopo II decatenation assays were conducted by incubating the kinetoplast DNA substrate (kDNA) with the hTopo II (TopoGEN, Port Orange, FL) and studied compounds, as indicated in the supplier procedures (TopoGEN, Port Orange, FL, USA), with some changes as in [80].
Figure 3 hTopo I relaxation assay. Plasmid pHOT1, used as substrate, was incubated with hTopo I with or without the studied compounds 7b–7e (10 µM concentration), panel (A), and with or without ellipticine (10 and 50 µM concentration), panel (B). Lane A, relaxed DNA marker; lane B, pHOT1 supercoiled DNA, lane C, CTRL (DMSO), lane D–G, compounds 7b–7e 10 µM, respectively. Lane 1, pHOT1 supercoiled DNA; lane 2, CTRL (DMSO), lanes 3–4, ellipticine 10 and 50 µM, respectively.

COc1cc(/C=C2\SC(=O)N(CC(=O)Nc3nc(-c4ccc(Br)cc4)cs3)C2=O)cc(OC)c1OC [compound 7e, (Z)-2-(5-(3,4,5-Trimethoxybenzylidene)thiazolidin-2,4-dion-3-yl)-N-(4-(4-bromophenyl)thiazol-2-yl)acetamide]
apoptosis (TUNEL, green nuclear fluorescence) (MCF-7 cells): had undergone the apoptotic process
Topoisomerase Inhibition hTopo I (hTopo I): −
hTopo I activity inhibition (in words) (hTopo I; 1 h, 37 °C, supercoiled pHOT1): able to inhibit hTopo I activity
